Assay results taken from patent publication US20030207891A1, “Combination therapy for modulating the human sexual response” (Zonagen, Inc., priority 1997, published 2003).
Structures can show the parent of a compound that is named as a salt.

How the values were obtained:
corpus cavernosum = settings: cited from earlier work; for erection after injection directly into the corpus cavernosum: hypodermic needle; for duration of erection after injection: intracavernosal, appropriate dose
[1] = tested on: male erectile dysfunction; settings: 25 mg and 50 mg; cited from earlier work
impotentia erectionis = settings: buccal, 100 I.U. three times a day for 14 days; cited from earlier work
[2] = tested on: spontaneous erections in men; assay: Effect of phentolamine and a phosphodiesterase inhibitor on spontaneous erections in men (Example 3); format: in vivo, human; settings: alone, no sexual stimulation
Text: Example 3 describes a study on the effect of phentolamine and a phosphodiesterase inhibitor on spontaneous erections in men.
Papaverine, a known non-specific phosphodiesterase inhibitor, in combination with phentolamine mesylate was compounded in a rapidly dissolving formulation as set out in Table 5 except that papaverine at the doses indicated below was substituted for Sildenafil.

impotent men = settings: ingestion; cited from earlier work

Compound | erection after injection directly into the corpus cavernosum (corpus cavernosum) | further results
CCN(CC)CCOC(=O)C(Cc1cccc2ccccc12)CC1CCCO1 (mixture of isomers) [naftidrofuryl] | caused erection | 
CCCc1nn(C)c2c(=O)[nH]c(-c3cc(S(=O)(=O)N4CCN(C)CC4)ccc3OCC)nc12 [Sildenafil, 5-[2-ethoxy-5-(4-methylpiperazine-1-ylsulfonyl)phenyl]-1-methyl-3-proplyl-6,7-dihydro-1-H-pyrazolo[4,3-d]pyrimidin-7-one] |  | effectiveness at various doses [1]: effective
CN(C)CCCN1c2ccccc2CCc2ccccc21 [imipramine] | caused erection | 
CC[C@H](C)[C@@H]1NC(=O)[C@H](Cc2ccc(O)cc2)NC(=O)[C@@H](N)CSSC[C@@H](C(=O)N2CCC[C@H]2C(=O)N[C@@H](CC(C)C)C(=O)NCC(N)=O)NC(=O)[C@H](CC(N)=O)NC(=O)[C@H](CCC(N)=O)NC1=O [oxytocin] |  | improvement of impotentia erectionis, patients treated (impotentia erectionis): 12 of the 16
COc1ccc(Cc2nccc3cc(OC)c(OC)cc23)cc1OC [papaverine] | caused erection | duration of erection after injection (corpus cavernosum): unrelenting erection lasting for hours
CC(COc1ccccc1)N(CCCl)Cc1ccccc1 (centres unmarked) [phenoxybenzamine] | caused erection | duration of erection after injection (corpus cavernosum): unrelenting erection lasting for hours
Cc1ccc(N(CC2=NCCN2)c2cccc(O)c2)cc1 [phentolamine mesylate] |  | spontaneous erections [2]: did not exhibit spontaneous erections
Cc1ccc(N(CC2=NCCN2)c2cccc(O)c2)cc1 [phentolamine] | caused erection | 
CC(=O)Oc1cc(C(C)C)c(OCCN(C)C)cc1C [thymoxamine] | caused erection | 
COc1ccc(CCN(C)CCCC(C#N)(c2ccc(OC)c(OC)c2)C(C)C)cc1OC (centres unmarked) [verapamil] | caused erection | 
COC(=O)[C@@H]1[C@H]2C[C@H]3c4[nH]c5ccccc5c4CCN3C[C@@H]2CC[C@@H]1O [yohimbine] |  | subjective improvement in erectile ability, impotent men treated (impotent men): 38%; treated patients reporting complete satisfaction (impotent men): 5%
